Results as given in patent publication US7745475B2, “Heteroaryl benzamide derivatives as GLK activators” (AstraZeneca AB, priority 2004, dated 2010).
pEC50: −log10 of the molar value. One block for each compound: values may come before it.

What was measured:
[1] = tested on: Zucker obese fa/fa rats; assay: Oral Glucose Tolerance Test (OGTT); format: in vivo, rat
Description: (2) Oral Glucose Tolerance Test (OGTT)
Oral glucose tolerance tests were done on conscious Zucker obese fa/fa rats (age 12-13 weeks or older) fed a high fat diet (45% kcal fat) for at least two weeks prior to experimentation. The animals were fasted for 2 hours before use for experiments. A test compound or a vehicle was given orally 120 minutes before oral administration of a glucose solution at a dose of 2 g/kg body weight. Blood glucose levels were measured using a Accucheck glucometer from tail bled samples taken at different time points before and after administration of glucose (time course of […]). A time curve of the blood glucose levels was generated and the area-under-the-curve (AUC) for 120 minutes was calculated (the time of glucose administration being time zero). Percent reduction in glucose excursion was determined using the AUC in the vehicle-control group as zero percent reduction.

[2] = Oral exposure; format: in vivo; settings: compared with Example II107 in WO 03/015774
[3] = molecular target: T1, recombinant human pancreatic GLK (Homo sapiens, UniProt P35557); assay: biochemical
T1 sequence (P35557 1-465): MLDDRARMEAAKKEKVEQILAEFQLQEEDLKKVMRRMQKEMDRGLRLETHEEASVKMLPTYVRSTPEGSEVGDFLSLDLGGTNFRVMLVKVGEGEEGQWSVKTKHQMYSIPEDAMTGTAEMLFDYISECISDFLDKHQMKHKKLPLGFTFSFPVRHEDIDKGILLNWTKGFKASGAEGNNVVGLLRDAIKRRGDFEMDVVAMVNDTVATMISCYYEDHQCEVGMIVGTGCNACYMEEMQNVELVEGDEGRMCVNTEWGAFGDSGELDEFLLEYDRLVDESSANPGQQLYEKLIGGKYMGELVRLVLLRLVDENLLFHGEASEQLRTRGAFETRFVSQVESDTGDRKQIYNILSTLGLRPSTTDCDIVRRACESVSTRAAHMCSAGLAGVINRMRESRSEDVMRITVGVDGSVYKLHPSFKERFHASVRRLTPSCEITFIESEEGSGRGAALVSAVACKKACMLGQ

[4] = molecular target: T1, recombinant human pancreatic GLK; assay: Enzymatic activity of recombinant human pancreatic GLK (G-6-P dehydrogenase coupled, OD 340 nm); settings: comparison in words

- melting point: 126 to 132 °C
Compound: C[C@@H](CO)Oc1cc(Oc2ccc(S(C)(=O)=O)cc2)cc(C(=O)Nc2ccn(C)n2)c1 [compound 3, 3-[(1S)-2-Hydroxy-1-methylethoxy]-N-(1-methyl-1H-pyrazol-3-yl)-5-[4-(methylsulfonyl)phenoxy]benzamide]

- melting point: 142 °C
Compound: C[C@@H](CO)Oc1cc(Oc2ccc(C(=O)N3CCC3)cc2F)cc(C(=O)Nc2ccn(C)n2)c1 [Example 4, 3-[4-(Azetidin-1-ylcarbonyl)-2-fluorophenoxy]-5-[(1S)-2-hydroxy-1-methylethoxy]-N-(1-methyl-1H-pyrazol-3-yl)benzamide]

- melting point: 124 °C
Compound: CCn1ccc(NC(=O)c2cc(Oc3ccc(C(=O)N4CCC4)cc3F)cc(O[C@@H](C)CO)c2)n1 [Example 9, 3-{[4-(Azetidin-1-ylcarbonyl)-2-fluorophenyl]oxy}-N-(1-ethyl-1H-pyrazol-3-yl)-5-{[(1S)-2-hydroxy-1-methylethyl]oxy}benzamide]

- melting point: 173 to 175 °C
Compound: Cc1nsc(NC(=O)c2cc(Oc3ccc(C(=O)N4CCC4)cc3F)cc(O[C@@H](C)CO)c2)n1 [Example 27, 3-[4-(Azetidin-1-ylcarbonyl)-2-fluorophenoxy]-5-[(1S)-2-hydroxy-1-methylethoxy]-N-(3-methyl-1,2,4-thiadiazol-5-yl)benzamide]

Compound: Cc1cnc(NC(=O)c2cc(OCCc3ccsc3)cc(OC(C)C)c2)s1 [Example II107, reference compound]
- OGTT activity ([1]; 10 mg/kg): not active

Compound: Cc1nsc(NC(=O)c2cc(Oc3ccc(S(C)(=O)=O)cc3)cc(O[C@@H](C)CO)c2)n1 [Example 3a, 3-[(1S)-2-hydroxy-1-methylethoxy]-5-[4-(methylsulfonyl)phenoxy]-N-(3-methyl-1,2,4-thiadiazol-5-yl)benzamide]
- OGTT activity (percent reduction in glucose excursion, AUC vs vehicle) ([1]; 3 mg/kg, given orally): 17%
- oral exposure [2]: superior oral exposure
- pEC50 [3]: 7.30
- EC50 values, Example 3a compared with Example II107 in WO 03/015774 [4]: broadly similar
